Laboratory results published in patent US20200146973A1, “Pharmaceutical Composition for Oral Delivery of Hydrophobic Small Molecule Drug and Hydrophilic Small Molecule Drug Concurrently” (National Tsing Hua University, priority 2016, published 2020).
Where two headings read alike, the source gives them in different places.

Columns and labels:
[1] = tested on: RAW 264.7 cells; assay: Uptake of emulsion containing DiO and Rhodamine B by RAW 264.7 cells (CLSM); assay type: cell-based; conditions: 3 hours of incubation, FIG. 12
Protocol: To understand better the route of drug delivery, RAW 264.7 cells are added the prepared emulsion containing DiO and Rhodamine B and then cultured for 3 hours. The unabsorbed emulsion is washed with PBS, and then the cells are fixed with formalin, stained, and observed with the CLSM. In addition, the rats are oral administrated with the enteric-coated gelatin capsules that contained the pharmaceutical composition of the present disclosure (the dose of DiO and Rhodamine B is 12 mg/kg, respectively). The animals are sacrificed 6 hours after oral administration, the MLNs are retrieved from euthanized rats, and the tissues are fixed in formalin for 4 hours at room temperature. Then the tissue was cut to size and embedded in OCT gel for frozen section and subsequent staining. The sections are finally examined by CLSM.

[2] = Lewis, rat, in vivo
Protocol: (§1) The pharmacokinetics of the pharmaceutical composition of the present disclosure is analyzed in this experiment. There are two groups, the rats are oral administered of the pharmaceutical composition of the present disclosure with 12 mg/kg of paclitaxel and 12 mg/kg of gemcitabine as the oral group, and the rats are tail intravenous injected at a dose of 12 mg/kg of paclitaxel and 12 mg/kg of gemcitabine as the I.V. group. After administration, blood of rat is collected from the tail vein at 0.5, 1, 2, 3, 4, 6, 8, 10, 12, 24, 48 hours, and plasma of rat is obtained after centrifugation. After treatment, the drug concentration is quantified by HPLC.
(§2) For quantifying gemcitabine (hereafter GEM), tetrahydrouridine (10 mM, 10 μL) is added, and 2 mL of an organic mixture (15% isopropanol in ethyl acetate) is added into 100 μL of the plasma. After mixing, the supernatant is centrifuged, dried, and then dissolved in the mobile phase to perform HPLC. Mobile phase is 0.1 M ammonium acetate:acetonitrile=98:2. For quantifying paclitaxel (hereafter PTX), 400 μL of acetonitrile is added into 100μL of plasma. After mixing well, the sample is centrifuged to remove the supernatant. Then 100 μL of ZnSO4 (10% w/v aqueous solution) is added. After mixing well, the sample is centrifuged to remove the supernatant. Then 1 mL of ethyl acetate is added. After mixing well, the sample is centrifuged to remove the supernatant, and then dried. Then the sample is dissolved in methanol to perform HPLC. Mobile phase is H2O:acetonitrile=90:10.

[3] = Pharmacokinetics in rats after I.V. injection or oral administration, plasma drug concentration quantified by HPLC
Protocol: as §1, §2

[4] = in vivo; conditions: Lewis, rat, 12 mg/kg
Protocol: as §1, §2

[5] = In vivo transport route by immunofluorescence staining (small intestine, MLNs, tumor; CLSM); design: species or system Lewis rats; conditions: oral capsule, DiO and Rhodamine B 12 mg/kg each, 6 hours after administration, FIG. 11
Source text: In addition to the comprehensive in vitro characterization of the pharmaceutical composition of the present disclosure, determination of the biodistribution of these lipid oil drops following in vivo administration is crucial because they act at the site of accumulation. To trace the pharmaceutical composition of the present disclosure in rats, DiO and Rhodamine B are used as fluorescent model drug for hydrophobic small molecule drug and hydrophilic small molecule drug, respectively.
The animal studies involved Lewis rats with masses of approximately 250 g and are performed in compliance with the “Guide for the Care and Use of Laboratory Animals”, which was prepared by the Institute of Laboratory Animal Resources, National Research Council, and published by the National Academy Press in 1996. The Institutional Animal Care and Use Committee of National Tsing Hua University approved all studies. To prepare the enteric-coated gelatin capsules for use in this experiment, hard gelatin capsules (size 9; Torpac Inc., Fairfield, N.J., U.S.A.) are manually filled with a powdered mixture of Rhodamine B (1 mg), DiO (1 mg), capric acid (18 mg), citric acid (6 mg), and sodium bicarbonate (5 mg), as per the manufacturer's instructions. […]

[6] = Ex vivo IVIS biodistribution of fluorescent model drugs in major organs; design: species or system rats; conditions: FIG. 14
Protocol: Further, ex vivo imaging of the distributions of different drugs in the major organs that are isolated from the test rats was conducted using an in vivo imaging system (IVIS). The rats are oral administrated a dose of 12 mg/kg of DiO and 12 mg/kg of Rhodamine B as an experiment group, and tail intravenous injected the same dose of DiO and Rhodamine B as an I.V. control group. In addition, the rats are intraperitoneally injected cycloheximide 1 hour before oral administration to block lymphatic absorption as a control group. The animals are sacrificed 6 hours after the feeding and 1 hour after the tail intravenous injection. At the time of maximum accumulation, the rats are sacrificed to remove the main organs (heart, lung, liver, spleen, pancreas and kidney) and the distribution of the fluorescent dye is observed by IVIS.

[7] = Lewis, rat, plasma, iv, 12 mg/kg
[8] = Lewis, rat, plasma, po, 12 mg/kg
[9] = Oral group, 12 mg/kg each, rat plasma

CCCCCCCCCCCCCCCCCCN1/C(=C\C=C\c2oc3ccccc3[n+]2CCCCCCCCCCCCCCCCCC)Oc2ccccc21.[O-][Cl+3]([O-])([O-])[O-] [DiO]
uptake into cells (colocalization of DiO and DAPI fluorescence) [1]: can be uptake into RAW 264.7 cells

Nc1ccn([C@@H]2O[C@H](CO)[C@@H](O)C2(F)F)c(=O)n1 [GEM, gemcitabine]
time post-administration after which the concentration cannot be detected ([2]; iv): 6 h
AUMC ([2]; iv, 12 mg/kg): 135.11 μg h^2/mL
time post-administration within which the concentration still can be detected ([2]; po): ≤ 12 h
AUMC ([2]; po, 12 mg/kg): 131.19 μg h^2/mL
AUC [3, 7]: 41100 ng·h/mL
Cmax [3, 7]: 16700 ± 4380 ng/mL
MRT [3, 7]: 3.28 h
clearance [3, 7]: 4 mL/min/kg
half-life [3, 7]: 2.36 h
bioavailability ([3]; Lewis, rat, plasma, oral, 12 mg/kg): 56.8%
AUC [3, 8]: 23400 ng·h/mL
Cmax [3, 8]: 3620 ± 1380 ng/mL
MRT [3, 8]: 5.61 h
half-life [3, 8]: 6.13 h
CL [3, 9]: 7.17 mL/min/kg
Tmaxz [3, 9]: 4.00 h
time at which the concentration reaches the highest peak, post-administration ([3]; Oral group, FIG. 15B): 4 h

CC(=O)O[C@H]1C(=O)[C@@]2(C)[C@H]([C@H](OC(=O)c3ccccc3)[C@]3(O)C[C@H](OC(=O)[C@H](O)[C@@H](NC(=O)c4ccccc4)c4ccccc4)C(C)=C1C3(C)C)[C@]1(OC(C)=O)CO[C@@H]1C[C@@H]2O [PTX, paclitaxel]
time post-administration after which the concentration cannot be detected ([2]; iv): 6 h
AUMC ([2]; iv, 12 mg/kg): 39.21 μg h^2/mL
time at which the concentration reaches the highest peak, post-administration ([2]; po): 6 h
time post-administration within which the concentration still can be detected ([2]; po): ≤ 12 h
AUMC ([2]; po, 12 mg/kg): 52.32 μg h^2/mL
CL ([2]; po, 12 mg/kg): 23 mL/min/kg
Tmaxz ([2]; po, 12 mg/kg): 8.00 h
bioavailability [4]: 59.2%
AUC ([4]; iv): 23600 ng·h/mL
Cmax ([4]; iv): 20000 ± 5010 ng/mL
MRT ([4]; iv): 1.66 h
clearance ([4]; iv): 7 mL/min/kg
half-life ([4]; iv): 10.2 h
AUC ([4]; po): 7250 ng·h/mL
Cmax ([4]; po): 1010 ± 970 ng/mL
MRT ([4]; po): 7.22 h
half-life ([4]; po): 14.4 h

CCN(CC)c1ccc2c(-c3ccccc3C(=O)O)c3ccc(=[N+](CC)CC)cc-3oc2c1.[Cl-] [Rhodamine B]
location of fluorescent signals (immunofluorescence staining) [5]: located on the lateral surfaces of the villi, Peyer's patches and tumor
organ accumulation (ex vivo IVIS) ([6]; I.V. control group, tail intravenous injection 12 mg/kg each, 1 hour): accumulated in liver, pancreas and kidneys
organ accumulation (ex vivo IVIS) ([6]; control group, cycloheximide intraperitoneally 1 hour before oral administration, 6 hours): accumulated in liver, pancreas and the lateral surfaces of intestinal tract
organ accumulation (ex vivo IVIS) ([6]; experiment group, oral 12 mg/kg each, 6 hours): accumulated in liver, pancreas and the lateral surfaces of intestinal tract
